Data: patent US4816444A, “Cell growth inhibitory substance” (priority 1987, dated 1989)
Converted amounts (≈) assume the structure as drawn.

Experiments:
[1] = system: Human Mammary Xenograph MX-1; assay: Human mammary xenograph to nude mouse MX-1 (life extension); format: in vivo
[2] = system: Human Melanoma Xenograph (LOX); assay: NCI human melanoma xenograph to nude mouse (LOX); format: in vivo; conditions: 52 μg/kg
[3] = system: P388 in vitro cell line; assay: P388 in vitro cell line growth inhibition; format: cell-based, murine
[4] = system: Human Melanoma Xenograph (LOX); assay: NCI human melanoma xenograph to nude mouse (LOX); format: in vivo
Experimental: Unit dosage forms of dolastatin 10 were prepared according to Example 1 and were screened using accepted protocols of the National Cancer Institute. The preparation obtained a 17-67% cure rate at 3.25-26 μg/kg host body weight against NCI murine human melanoma xenograph.

[5] = system: P388 lymphocytic leukemia; assay: NCI murine P388 lymphocytic leukemia (PS system), in vivo
Experimental: Unit dosage forms of dolastatin 10 prepared according to selected compositions described in Example 1 were screened utilizing Protocol 1,200 described in Cancer Chemotherapy Reports, parts 3, Vol. 3, No. 2, September 1972, pp 9 et seq for lymphocytic leukemia P388. Dolastatin 10 provided a 69-102% life extension at 1-4 μg/Kg host body weight against the murine P388 lymphocytic leukemia.

[6] = system: B16 Melanoma; assay: NCI murine B16 melanoma, in vivo
Experimental: A unit dosage form of dolastatin 10, prepared according to Example 1, was challenged with B-16 murine melanoma and obtained a 42% to 138% life extension at 1.44 to 11.1 μg/Kg using the National Cancer Institute accepted protocol.

[7] = system: MX-1; assay: MX-1 tumor regression; format: in vivo, human
[8] = system: L1210 Lymphocytic Leukemia; assay: L1210 lymphocytic leukemia, murine in vivo system
[9] = system: M5076 Ovary Sarcoma; assay: M5076 ovary sarcoma, murine in vivo system
[10] = system: B16 Melanoma; conditions: 11 μg/kg; cited from earlier work

Compound: CC[C@H](C)[C@@H]([C@@H](CC(=O)N1CCC[C@H]1[C@H](OC)[C@@H](C)C(=O)N[C@@H](Cc1ccccc1)c1nccs1)OC)N(C)C(=O)[C@@H](NC(=O)[C@H](C(C)C)N(C)C)C(C)C [Dolastatin 10]
- T/C (life extension) ([1]; 6.25 μg/kg): 178
- T/C (life extension) ([1]; 13 μg/kg): 137
- T/C (life extension) ([1]; 26 μg/kg): toxic
- T/C (life extension) ([1]; 52 μg/kg): toxic
- T/C [2]: toxic
- cures [2]: 66.6%
- ED50 [3]: 0.046 ng/mL (≈ 0.0586 nM)
- T/C ([4]; 3.25 μg/kg): 170
- T/C ([4]; 6.5 μg/kg): 206
- cures ([4]; 6.5 μg/kg): 16.6%
- T/C ([4]; 13 μg/kg): 301
- cures ([4]; 13 μg/kg): 33.3%
- T/C ([4]; 26 μg/kg): 301
- cures ([4]; 26 μg/kg): 50%
- curative response / cure rate ([4]; 3.25-26 μg/kg): 17-67%
- T/C ([5]; 2 μg/kg): 199
- T/C ([5]; 4 μg/kg): 202
- T/C ([5]; 8 μg/kg): 161
- T/C ([5]; 13.5 μg/kg): 173
- T/C ([5]; 08-27 μg/kg): toxic
- T/C ([6]; 3.4 μg/kg): 171
- T/C ([6]; 4.0 μg/kg): 205
- T/C ([6]; 6.67 μg/kg): 182
- T/C ([6]; 11.11 μg/kg): 238
- MX-1 Tumor Regression, T/C ([7]; 6.25 μg/kg): 69
- MX-1 Tumor Regression, T/C ([7]; 13 μg/kg): 61
- MX-1 Tumor Regression, T/C ([7]; 26 μg/kg): 50
- MX-1 Tumor Regression, T/C ([7]; 52 μg/kg): 14
- T/C ([8]; 1.63 μg/kg): 120
- T/C ([8]; 3.25 μg/kg): 139
- T/C ([8]; 6.5 μg/kg): 135
- T/C ([8]; 13 μg/kg): 152
- T/C ([8]; 26 μg/kg): toxic
- T/C ([9]; 3.25 μg/kg): 151
- T/C ([9]; 6.5 μg/kg): 142
- T/C ([9]; 13 μg/kg): 166
- T/C ([9]; 24 μg/kg): toxic
- T/C ([9]; 26 μg/kg): toxic

Compound: dolastatin 1
- cure rate [10]: 33%
